According to US10000476B2, “Pyridone derivative, pharmaceutical containing the same and methods of use thereof” (KAKEN PHARMACEUTICAL CO., LTD., priority 2011, dated 2018):

Assays:
TACE = TACE (Homo sapiens (Human), UniProt P78536); assay: TACE inhibition test (in vitro); format: biochemical; details: fluorescent synthetic substrate, 37° C., 1.5 hours
How it was run: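 Recombinant enzyme (cDNA from THP-1 cells, expressed in mammalian or insect cells) with quenched substrate Nma-Leu-Ala-Gln-Ala-Val-Arg-Ser-Ser-Lys(Dnp)-D-Arg-NH2. Incubated 1.5 h at 37 °C; fluorescence read at ex 355/em 460 nm; IC50 from inhibition rate.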

[1] = tested on: auricular oedema induced by TPA in BALB/c mice; assay: Inhibition test of auricular oedema induced by single application of TPA in mouse; format: in vivo; details: 1 w/v % solution applied topically to ear 1 hour before TPA, auricle thickness 6 hours after TPA, read-out: Auricular oedema inhibition rate (%)
Experimental: Inhibition Test of Auricular Oedema Induced by Single Application of TPA (12-O-tetradecanoylphorbol-13-acetate) in Mouse (In Vivo Efficacy Test Based on TNF-α-Related Cutaneous Inflammation)
Auricular oedema was induced by applying 54 μmol/L TPA-acetone solution on both the inner and outer sides of the left ear of BALB/c mice (application volume of 54 μmol/L TPA-acetone solution is 10 μL for each side of the left ear (i.e. 1.08 nmol TPA/auricle)). For a non-induced group, acetone was similarly applied instead of the 54 μmol/L TPA-acetone solution. The test substance was dissolved and prepared in a 1 w/v % solution of acetone containing 10 vol % DMSO (topical administration vehicle), then the test solution was applied onto both the inner and outer sides of the left ear of the mice (application volume of this test solution is 10 μL for each side of the left ear) 1 hour before the TPA application. For a control group, the topical administration vehicle was similarly applied instead of the test substance solution. For an etanercept group, 0.2 mL of a 5 mg/mL etanercept solution was intravenously administered (1 mg/mouse) the day before TPA application and 1.5 hours before TPA application. For a human IgG (hIgG) group (etanercept control group), 0.2 mL of a 5 mg/mL hIgG solution was intravenously administered (1 mg/mouse). Auricle thickness was measured under ether anesthesia the day before TPA application and 6 hours after TPA application for evaluation of the auricular oedema inhibition effect of the test substance based on the increase in auricle thickness as an index.
The auricular oedema inhibition rate (%) of the test substance was calculated based on the following formula using (A) the average value of the increase in auricular thickness of the group administered with the test substance, (B) the average value of the increase in auricular thickness of the non-induced group, and (C) the average value of the increase in auricular thickness of the control group. […]

Chain of TACE (P78536 215-824): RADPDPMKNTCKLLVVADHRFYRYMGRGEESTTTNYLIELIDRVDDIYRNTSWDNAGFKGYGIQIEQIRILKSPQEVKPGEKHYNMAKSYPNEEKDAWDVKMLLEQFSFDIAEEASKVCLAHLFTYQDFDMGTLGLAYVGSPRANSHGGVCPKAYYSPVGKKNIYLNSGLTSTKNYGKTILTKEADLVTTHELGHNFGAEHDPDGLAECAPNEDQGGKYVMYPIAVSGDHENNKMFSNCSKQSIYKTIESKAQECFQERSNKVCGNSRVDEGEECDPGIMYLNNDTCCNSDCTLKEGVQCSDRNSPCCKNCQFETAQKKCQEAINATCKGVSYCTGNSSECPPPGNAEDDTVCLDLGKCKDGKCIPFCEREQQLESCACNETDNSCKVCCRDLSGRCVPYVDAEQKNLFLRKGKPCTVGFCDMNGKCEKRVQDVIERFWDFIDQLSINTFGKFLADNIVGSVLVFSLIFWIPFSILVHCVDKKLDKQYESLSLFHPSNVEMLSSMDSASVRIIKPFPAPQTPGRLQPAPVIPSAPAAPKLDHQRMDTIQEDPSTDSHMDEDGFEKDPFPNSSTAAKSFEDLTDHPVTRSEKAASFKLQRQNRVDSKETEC

- IC50 (TACE): < 100 nM
Structure (SMILES): Cc1cc(C2(Cn3cccc(C)c3=O)NC(=O)NC2=O)cc(C)c1OC1CCCC1 (centres unmarked) [Compound I-129]
- inhibition in vivo at 10000 µg/mL [1]: 71%
